Article PMC6701825, “Antiproliferative and Antimigratory Effects of a Novel YAP–TEAD Interaction Inhibitor Identified Using in Silico Molecular Docking” (Journal of Medicinal Chemistry, 2019)

Assays:
MCF7 cells = experiment: EdU proliferation assay in MCF7 cells; format: cell-based, human; settings: MCF7, YAP-TEAD-independent growth, 18 hours then 6 hours EdU
Method: Cell proliferation was measured using the Click-iT EdU 488 assay (Sigma-Aldrich). Briefly, the cells were treated with indicated concentrations of compounds for 24 h with the last 4 h being in the presence of 10 μM EdU. The cells were fixed in 4% formaldehyde and stained for EdU incorporation, following the kit’s standard protocol. The cells were counterstained with Hoechst 33342 nucleic acid for 20 min. Fluorescent images of at least three fields of view per well were counted using ImageJ software. Real-time analysis of cell migration was performed using an IncuCyte ZOOM live cell imaging system (Essen BioScience) according to the manufacturer’s instructions. Briefly, the cells were seeded (1.2 × 10^4 cells/well for HeLa cells, 1.5 × 10^4 cells/well for RaVSMCs, and 1 × 10^4 cells/well) into ImageLock 96-well plates. After 36 h, the cells were pretreated overnight with indicated concentrations of compounds. The wells were scratched using a WoundMaker tool, and the media were replaced containing test compounds. Phase contrast images of cell migration into the wounded area were acquired hourly for 24 h. Relative wound confluence was calculated using the Cell Migration Image analysis module of the IncuCyte ZOOM software. […]
MCF7 cells were incubated with the indicated concentrations of CPD3.1 (n=3). […] Edu incorporation in to newly synthesised DNA was detected using the Edu-Click detection kit. […]

[1] = molecular target: T1, binding of endogenous YAP protein to recombinant GST-TEAD1 (Homo sapiens, UniProt P28347); experiment: In vitro GST-TEAD1-YAP interaction (pull-down) assay; settings: 200 μM compound, HEK293 lysate, 18 h at 4 °C, Western blot
T1 construct: human TEAD1 (corresponding to residues 194–411); made in house; host or cells: SoluBL21 Escherichia coli (GST-TEAD1); HEK293 lysate (endogenous YAP)
Description: We next tested the ability of these four compounds to inhibit the binding of endogenous YAP protein present in HEK293 whole cell lysate to recombinant glutathione S-transferase (GST)–TEAD1 protein immobilized on glutathione resin beads. […] Inhibition of YAP binding to TEAD1 in the presence of CPD3 was further confirmed using co-immunoprecipitation assays using mammalian cell lysates prepared from HeLa expressing myc-TEAD1 and GFP–YAP. […] We next set up a 96-well plate-based YAP–TEAD interaction assay to determine the IC50 of the inhibition of the YAP–TEAD complex by CPD3.
The DNA fragment encoding human TEAD1 (corresponding to residues 194–411) was amplified by polymerase chain reaction (PCR) and cloned into the BamH1 and EcoR1 sites of vector pGEX-6P1, in frame with the terminal GST tag. GST–TEAD1 fusion protein expression was induced in SoluBL21s Escherichia coli by culture at 25 °C in the presence of 0.2 mM IPTG for 18 h. […] Bound proteins were eluted by boiling in Laemmli sample buffer and YAP and GST–TEAD levels quantified by Western blotting with an anti-YAP antibody (Cell Signaling; #4912) and an anti-GST antibody (Cell Signaling; #5475S).

[2] = system: TEAD-independent minimal TNT1 gene promoter; experiment: Minimal TNT1 promoter-luciferase (minP-LUC) reporter in RaVSMCs; format: cell-based, rat; settings: 6 h
Method: Figure 3 Compound 3 inhibits TEAD target gene expression, cell proliferation, and cell migration. HeLa cells (A) and RaVSMCs (B) were transfected with CCN1-LUC, CTGF-LUC or minimal promoter-LUC (minP-LUC) reporter plasmids and treated with indicated concentrations of compound 3 for 6 h. Cell lysates were assayed for fire-fly luciferase activity (n = 3). HeLa cells (C) and RaVSMCs (D) were treated with indicated concentrations of compound 3 for 18 h, followed by a 6 h labeling with 10 μM EdU (n = 4). HeLa cells (E) and RaVSMCs (F) were treated with the indicated concentrations of compound 3 and migration quantified using a real-time IncuCyte scratch wound assay (n = 4). * = p < 0.05, ** = p < 0.01, *** = p < 0.001.
TNT1-minP reporter containing the Troponin-T minimal promoter was generated by digesting 8xGTIIC-luciferase plasmid (Addgene #34615) with Kpn1 and BglII to remove the TEAD elements, followed by blunt end re-ligation. A 2.177 kb fragment of the human CCN1 promoter containing two proximal TEAD elements (Hg19;chr1:86044316–chr1:86046493) was described previously[39] and cloned into pGL4-luciferase (Promega). The proximal promoter regions of the CTGF (Hg19;chr6:132272455–132272687) promoter, containing a consensus TEAD-binding element, was amplified by PCR from human genomic DNA and cloned into the Kpn1 and Nhe1 sites of pGL4-luciferase. […]

T1 sequence (P28347 209-426): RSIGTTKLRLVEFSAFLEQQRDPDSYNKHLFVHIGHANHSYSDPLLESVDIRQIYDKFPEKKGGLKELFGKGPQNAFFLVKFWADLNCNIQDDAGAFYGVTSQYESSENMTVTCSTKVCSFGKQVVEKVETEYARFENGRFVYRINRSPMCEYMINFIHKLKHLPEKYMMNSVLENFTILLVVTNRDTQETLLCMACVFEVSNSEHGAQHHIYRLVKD

For `Cc1ccc2c(c1)c1c3n2CCNC3CCC1` (stereo not drawn) [CPD3.1], the “proliferation of MCF7 cells (EdU)” value (MCF7 cells) was “did not inhibit the proliferation of MCF7 cells”.
`Cc1ccc2c(c1)c1c3n2CCN(CC(O)CN2CCN(C(=O)c4ccco4)CC2)C3CCC1` (stereo not drawn) [CPD3] was tested, and the “inhibition of binding of YAP protein to GST-TEAD1” value [1] was “inhibit the binding of YAP protein” and the “activity of TEAD-independent minimal TNT1 promoter (minP-LUC)” value [2] was “not inhibited by any concentration”.
